Source: PubChem BioAssay AID328 (DTP/NCI, 2004)
“And” between values parts separate entries of the source, which are not always exact repeats. Identical values can stand only once. Toxic doses and inconclusive results are not listed.

Test system: BDF1 mice, P388 leukemia ip, median survival T/C
Assay: NCI In Vivo Anticancer Drug Screen. Data for tumor model P388 Leukemia (intraperitoneal) in B6D2F1 (BDF1) mice
Settings: endpoint: median survival time, higher = longer survival
Summary of the method: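 Each value expresses how treatment altered survival: treated-mouse outcome over vehicle-mouse outcome, both groups bearing the transplanted tumour.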

[1] = dose: 100.0 mg/kg/injection, schedule: Q01DX001 (ip), vehicle: Klucel (hydroxypropylcellulose) (HPC)
[2] = dose: 100.0 mg/kg/injection, schedule: Q01DX009 (ip), vehicle: Klucel (hydroxypropylcellulose) (HPC)
[3] = dose: 100.0 mg/kg/injection, schedule: Q04DX003 (ip), vehicle: Klucel (hydroxypropylcellulose) (HPC)
[4] = dose: 200.0 mg/kg/injection, schedule: Q01DX001 (ip), vehicle: Klucel (hydroxypropylcellulose) (HPC)
[5] = dose: 200.0 mg/kg/injection, schedule: Q01DX009 (ip), vehicle: Klucel (hydroxypropylcellulose) (HPC)
[6] = dose: 200.0 mg/kg/injection, schedule: Q04DX003 (ip), vehicle: Klucel (hydroxypropylcellulose) (HPC)
[7] = dose: 400.0 mg/kg/injection, schedule: Q01DX009 (ip), vehicle: Klucel (hydroxypropylcellulose) (HPC)
[8] = dose: 400.0 mg/kg/injection, schedule: Q04DX003 (ip), vehicle: Klucel (hydroxypropylcellulose) (HPC)
[9] = dose: 6.25 mg/kg/injection, schedule: Q04DX003 (ip), vehicle: water
[10] = dose: 12.5 mg/kg/injection, schedule: Q04DX003 (ip), vehicle: water
[11] = dose: 25.0 mg/kg/injection, schedule: Q04DX003 (ip), vehicle: water
[12] = dose: 50.0 mg/kg/injection, schedule: Q04DX003 (ip), vehicle: water
[13] = dose: 50.0 mg/kg/injection, schedule: Q01DX009 (ip), vehicle: Klucel (hydroxypropylcellulose) (HPC)
[14] = dose: 25.0 mg/kg/injection, schedule: Q01DX009 (ip), vehicle: saline with Tween-80
[15] = dose: 50.0 mg/kg/injection, schedule: Q01DX009 (ip), vehicle: saline with Tween-80
[16] = dose: 100.0 mg/kg/injection, schedule: Q01DX009 (ip), vehicle: saline with Tween-80
[17] = dose: 200.0 mg/kg/injection, schedule: Q01DX009 (ip), vehicle: saline with Tween-80
[18] = dose: 400.0 mg/kg/injection, schedule: Q01DX009 (ip), vehicle: saline with Tween-80

With `S=C(NNc1ccccc1)NC1CCCCC1` the T/C [1] was 100 % of control, the T/C [2] was 86 % of control and the T/C [3] was 110 % of control. The T/C [4] was 100 % of control, the T/C [5] was 90 % of control and the T/C [6] was 105 % of control. The T/C (dose: 400.0 mg/kg/injection, schedule: Q01DX001 (ip), vehicle: Klucel (hydroxypropylcellulose) (HPC)) was 104 % of control, the T/C [7] was 100 % of control and the T/C [8] was 110 % of control.
For `CCN(CC)CCCC(C)NS(=O)(=O)c1cccc2c(N(C)C)cccc12` (stereo not drawn), the T/C [9] was 97 % of control, the T/C [10] was 108 % of control and the T/C [11] was 118 % of control. For the same compound, the T/C [12] was 118 % of control and the T/C (dose: 100.0 mg/kg/injection, schedule: Q04DX003 (ip), vehicle: water) was 115 % of control.
For `COc1cc(Cc2cc(OC)c(O)c(OC)c2)cc(OC)c1O`, the T/C [3] was 95 % of control, the T/C [6] was 100 % of control and the T/C [8] was 100 % of control.
In the case of `O=C1/C(=N/O)Cc2ccccc21`, the T/C (dose: 0.1 mg/kg/injection, schedule: Q01DX009 (ip), vehicle: water) is reported as 101 % of control, the T/C (dose: 0.2 mg/kg/injection, schedule: Q01DX009 (ip), vehicle: water) is reported as 103 % of control and 108 % of control and the T/C (dose: 0.8 mg/kg/injection, schedule: Q01DX009 (ip), vehicle: water) is reported as 106 % of control. For the same compound, the T/C (dose: 1.2 mg/kg/injection, schedule: Q01DX009 (ip), vehicle: water) was 108 % of control, the T/C (dose: 2.4 mg/kg/injection, schedule: Q01DX009 (ip), vehicle: water) was 96 % of control and the T/C (dose: 3.12 mg/kg/injection, schedule: Q04DX003 (ip), vehicle: water) was 106 % of control. For the same compound, the T/C [9] was 97 % of control, the T/C [10] was 115 % of control and the T/C [11] was 104 % of control. The T/C [12] was 106 % of control.
With `ClCC#Cc1ccccc1` the T/C (dose: 12.5 mg/kg/injection, schedule: Q01DX009 (ip), vehicle: Klucel (hydroxypropylcellulose) (HPC)) was 109 % of control, the T/C (dose: 25.0 mg/kg/injection, schedule: Q01DX009 (ip), vehicle: Klucel (hydroxypropylcellulose) (HPC)) was 86 % of control and the T/C [13] was 100 % of control.
`CC[C@H]1CN2CCc3cc(OC)c(OC)cc3[C@@H]2C[C@@H]1C[C@@H]1c2cc(OC)c(OC)cc2CCN1CCN(CCCl)CCCl` was tested, and the T/C (dose: 4.3 mg/kg/injection, schedule: Q04DX003 (ip), vehicle: saline with Tween-80) was 121 % of control, the T/C (dose: 6.48 mg/kg/injection, schedule: Q04DX003 (ip), vehicle: saline with Tween-80) was 108 % of control and the T/C (dose: 10.8 mg/kg/injection, schedule: Q04DX003 (ip), vehicle: saline with Tween-80) was 119 % of control. For the same compound, the T/C (dose: 12.0 mg/kg/injection, schedule: Q04DX003 (ip), vehicle: saline with Tween-80) was 153 % of control and the T/C (dose: 20.0 mg/kg/injection, schedule: Q04DX003 (ip), vehicle: saline with Tween-80) was 157 % of control.
With `COc1ccc(NC(=O)c2ccccc2Cl)cc1` the T/C [2] was 100 % of control, the T/C [3] was 104 % of control and the T/C [5] was 95 % of control. For the same compound, the T/C [6] was 91 % of control, the T/C [7] was 104 % of control and the T/C [8] was 112 % of control.
For `CN(C)S(=O)(=O)c1ccccc1C(O)(c1ccccc1)c1ccccc1`, the T/C (dose: 100.0 mg/kg/injection, schedule: Q04DX003 (ip), vehicle: saline with Tween-80) was 99 % of control, the T/C (dose: 200.0 mg/kg/injection, schedule: Q04DX003 (ip), vehicle: saline with Tween-80) was 116 % of control and the T/C (dose: 400.0 mg/kg/injection, schedule: Q04DX003 (ip), vehicle: saline with Tween-80) was 91 % of control.
For `CCC1CC(O)c2c(O)c3c(c(O)c2C1O)C(=O)c1cccc(O)c1C3=O` (stereo not drawn) (tested in a mixture with another compound), the T/C (dose: 0.5 mg/kg/injection, schedule: Q01DX001 (ip), vehicle: saline) was 100 % of control, the T/C (dose: 1.0 mg/kg/injection, schedule: Q01DX001 (ip), vehicle: saline) was 109 % of control and the T/C (dose: 2.0 mg/kg/injection, schedule: Q01DX001 (ip), vehicle: saline) was 109 % of control.
In the case of `O=C1c2ccccc2C(=O)N1C/C(=N/O)c1ccc(C(F)(F)F)cc1`, the T/C (dose: 50.0 mg/kg/injection, schedule: Q01DX001 (ip), vehicle: Klucel (hydroxypropylcellulose) (HPC)) is reported as 96 % of control, the T/C [1] is reported as 96 % of control and the T/C [4] is reported as 96 % of control.
With `CCC(C)C(NC(=O)C(Cc1ccc(O)cc1)NC(=O)C(N)C(C)C)C(=O)NC(Cc1cnc[nH]1)C(=O)N1CCCC1C(=O)NC(Cc1ccccc1)C(=O)OC` (stereo not drawn) the T/C (dose: 50.0 mg/kg/injection, schedule: Q01DX005 (ip), vehicle: saline with Tween-80) was 101 % of control, the T/C (dose: 100.0 mg/kg/injection, schedule: Q01DX005 (ip), vehicle: saline with Tween-80) was 90 % of control and the T/C (dose: 200.0 mg/kg/injection, schedule: Q01DX005 (ip), vehicle: saline with Tween-80) was 90 % of control.
In the case of `O=C1NC(=O)C2(CCc3ccccc3C2)N1` (stereo not drawn), the T/C [14] is reported as 97 % of control, the T/C [15] is reported as 99 % of control and 107 % of control and the T/C [16] is reported as 96 % of control and 104 % of control. For the same compound, the T/C [17] was 96 % of control and 97 % of control and the T/C [18] was 92 % of control.
With `CC1CC(C)(C)N=C(C(Cc2ccc(Br)cc2)c2ccccc2)O1` (stereo not drawn) the T/C (dose: 100.0 mg/kg/injection, schedule: Q01DX001 (ip), vehicle: saline sonified) was 95 % of control, the T/C (dose: 200.0 mg/kg/injection, schedule: Q01DX001 (ip), vehicle: saline sonified) was 110 % of control and the T/C (dose: 400.0 mg/kg/injection, schedule: Q01DX001 (ip), vehicle: saline sonified) was 110 % of control.
With `O=C1c2ccccc2-c2ccc(Br)c3cccc1c23` the T/C [13] was 100 % of control, the T/C [2] was 100 % of control and the T/C [5] was 100 % of control.
For `COc1ccc2c(OC)c3ccoc3nc2c1OC`, the T/C (dose: 1.57 mg/kg/injection, schedule: Q01DX009 (ip), vehicle: Klucel (hydroxypropylcellulose) (HPC)) was 89 % of control, the T/C (dose: 3.13 mg/kg/injection, schedule: Q01DX009 (ip), vehicle: Klucel (hydroxypropylcellulose) (HPC)) was 89 % of control and the T/C (dose: 6.25 mg/kg/injection, schedule: Q01DX009 (ip), vehicle: Klucel (hydroxypropylcellulose) (HPC)) was 101 % of control.
For `O=C(Nc1ccc([N+](=O)[O-])cc1)Nc1ccc([N+](=O)[O-])c(C(F)(F)F)c1`, the T/C [16] was 87 % of control, the T/C (dose: 110.0 mg/kg/injection, schedule: Q01DX009 (ip), vehicle: Klucel (hydroxypropylcellulose) (HPC)) was 105 % of control and 117 % of control and the T/C (dose: 170.0 mg/kg/injection, schedule: Q01DX009 (ip), vehicle: Klucel (hydroxypropylcellulose) (HPC)) was 121 % of control. The T/C [17] was 95 % of control, the T/C (dose: 225.0 mg/kg/injection, schedule: Q01DX009 (ip), vehicle: Klucel (hydroxypropylcellulose) (HPC)) was 105 % of control and the T/C [18] was 100 % of control.
With `COC(=O)C1=C(C(=O)OC)C2C=CC1C1CC(OC(C)=O)C21` (stereo not drawn) the T/C [15] was 113 % of control, the T/C [16] was 113 % of control and the T/C [17] was 101 % of control.
`N#C/C(=C\c1cc(Cl)cc(Cl)c1O)c1nc2ccccc2[nH]1` was tested, and the T/C [15] was 93 % of control and the T/C [16] was 93 % of control.
`COC(=O)c1ccccc1OP(=O)(N(C)C)N(C)C` was tested, and the T/C [15] was 94 % of control, the T/C [16] was 110 % of control and the T/C [17] was 105 % of control.
With `COC(CN1C(=O)CSC1=S)OC` the T/C [14] was 100 % of control, the T/C [15] was 104 % of control and 117 % of control and the T/C [17] was 109 % of control.
With `O=C(Nc1ccc(NC2=NCCN2)cc1)c1ccc(C(=O)Nc2ccc(NC3=NCCN3)cc2)cc1` the T/C (dose: 2.0 mg/kg/injection, schedule: Q01DX010 (ip), vehicle: saline) was 165 % of control and 180 % of control, the T/C (dose: 4.0 mg/kg/injection, schedule: Q01DX010 (ip), vehicle: saline) was 260 % of control and 205 % of control and the T/C (dose: 8.0 mg/kg/injection, schedule: Q01DX010 (ip), vehicle: saline) was 260 % of control and 285 % of control. For the same compound, the T/C (dose: 16.0 mg/kg/injection, schedule: Q01DX010 (ip), vehicle: saline) was 105 % of control and 110 % of control.
With `C1CC[N-]CC1.C1CC[N-]CC1.[Co].[N-]=C=S.[N-]=C=S` the T/C (dose: 100.0 mg/kg/injection, schedule: Q01DX001 (ip), vehicle: saline with Tween-80) was 99 % of control.
`COc1ccc2c(c1)C(Cc1ccc(Oc3ccc(CC4c5cc(OC)ccc5CC[N+]4(C)C)cc3)cc1)[N+](C)(C)CC2` (stereo not drawn) was tested, and the T/C (dose: 0.1 mg/kg/injection, schedule: Q04DX003 (ip), vehicle: saline) was 104 % of control, the T/C (dose: 0.2 mg/kg/injection, schedule: Q04DX003 (ip), vehicle: saline) was 100 % of control and the T/C (dose: 0.39 mg/kg/injection, schedule: Q04DX003 (ip), vehicle: saline with Tween-80) was 93 % of control. The T/C (dose: 0.4 mg/kg/injection, schedule: Q04DX003 (ip), vehicle: saline) was 96 % of control.
